Measured values published in patent publication US12077503B2, “Substituted cyclic amides and their use as herbicides” (FMC CORPORATION, priority 2015, dated 2024).

Assays:
Type in all cases: in vivo
[1] = test system: redroot pigweed (Amaranthus retroflexus); experiment: Test G Pre-Emergence Protocol; conditions: Amaranthus retroflexus, pre-emergence, 312 h, evaluated after 13 days
Summary of the method: (§1)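 Spraying took place one day after sowing, at 15.625, 62.5 or 250 g/ha, using an acetone/water (50:50) spray solution containing 0.5% Tween 20. Plants were kept under glasshouse conditions (24/16 °C, 14 h light, 65% humidity, watered twice daily), and injury was rated 0–100 at day 13.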

[2] = test system: ivy-leaved morning glory (Ipomoea hederacea); experiment: Test G Pre-Emergence Protocol; conditions: Ipomoea, pre-emergence, 312 h, evaluated after 13 days
Summary of the method: as §1

[3] = test system: barnyardgrass (Echinochloa crus-galli); experiment: Test G Pre-Emergence Protocol; conditions: Echinochloa crus-galli, pre-emergence, 312 h, evaluated after 13 days
Summary of the method: as §1

[4] = test system: velvetleaf (Abutilon theophrasti); experiment: Test G Pre-Emergence Protocol; conditions: Abutilon theophrasti, pre-emergence, 312 h, evaluated after 13 days
Summary of the method: as §1

[5] = test system: giant foxtail (Setaria faberi); experiment: Test G Pre-Emergence Protocol; conditions: Setaria faberi, pre-emergence, 312 h, evaluated after 13 days
Summary of the method: as §1

corn (Zea mays) [6] = experiment: Test G Pre-Emergence Protocol; conditions: Zea mays, pre-emergence, 312 h, evaluated after 13 days
Summary of the method: as §1

[7] = test system: redroot pigweed (Amaranthus retroflexus); experiment: Test G Post-Emergence Protocol; conditions: Amaranthus retroflexus, post-emergence, 312 h
Summary of the method: (§2)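 Post-emergence herbicidal damage, scored visually 0–100 at 13 days. Application at 15.625, 62.5 or 250 g/ha onto 8-day-old plants grown under glasshouse control.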

[8] = test system: ivy-leaved morning glory (Ipomoea hederacea); experiment: Test G Post-Emergence Protocol; conditions: Ipomoea, post-emergence, 312 h
Summary of the method: as §2

[9] = test system: barnyardgrass (Echinochloa crus-galli); experiment: Test G Post-Emergence Protocol; conditions: Echinochloa crus-galli, post-emergence, 312 h
Summary of the method: as §2

[10] = test system: velvetleaf (Abutilon theophrasti); experiment: Test G Post-Emergence Protocol; conditions: Abutilon theophrasti, post-emergence, 312 h
Summary of the method: as §2

[11] = test system: giant foxtail (Setaria faberi); experiment: Test G Post-Emergence Protocol; conditions: Setaria faberi, post-emergence, 312 h
Summary of the method: as §2

corn (Zea mays) [12] = experiment: Test G Post-Emergence Protocol; conditions: Zea mays, post-emergence, 312 h
Summary of the method: as §2

Compound `Cc1ccc([C@H]2CN(C)C(=O)[C@@H]2C(=O)Nc2ccccc2F)cc1Cl` (racemic) [Compound 1420] has a pest or weed control at 15.625 g/ha ([1]; 15.625 g ai/ha, read-out: Pigweed, Redroot damage rating (100=total damage to plant; 0=no damage to plant)) of 0%, a pest or weed control at 62.5 g/ha ([1]; 62.5 g ai/ha, 100=total damage to plant, 0=no damage to plant, read-out: plant damage rating, Pigweed, Redroot) of 0% and a pest or weed control at 250 g/ha ([1]; 250 g ai/ha, read-out: Pigweed, Redroot damage rating (100=total damage to plant; 0=no damage to plant)) of 0%. It also gave a pest or weed control at 15.625 g/ha ([2]; 15.625 g ai/ha, read-out: Morning-glory, Ivy-leaved damage rating (100=total damage to plant; 0=no damage to plant)) of 0%, a pest or weed control at 62.5 g/ha ([2]; 62.5 g ai/ha, 100=total damage to plant, 0=no damage to plant, read-out: plant damage rating, Morningglory, Ivy-leaved) of 0% and a pest or weed control at 250 g/ha ([2]; 250 g ai/ha, read-out: Morningglory, Ivy-leaved damage rating (100=total damage to plant; 0=no damage to plant)) of 0%. For the same compound, the pest or weed control at 15.625 g/ha ([3]; 15.625 g ai/ha, read-out: Barnyard grass damage rating (100=total damage to plant; 0=no damage to plant)) was 60%, the pest or weed control at 62.5 g/ha ([3]; 62.5 g ai/ha, 100=total damage to plant, 0=no damage to plant, read-out: plant damage rating, Barnyardgrass) was 70% and the pest or weed control at 250 g/ha ([3]; 250 g ai/ha, read-out: Barnyardgrass damage rating (100=total damage to plant; 0=no damage to plant)) was 80%. The pest or weed control at 15.625 g/ha ([4]; 15.625 g ai/ha, read-out: Velvetleaf damage rating (100=total damage to plant; 0=no damage to plant)) was 0%, the pest or weed control at 62.5 g/ha ([4]; 62.5 g ai/ha, 100=total damage to plant, 0=no damage to plant, read-out: plant damage rating, Velvetleaf) was 0% and the pest or weed control at 250 g/ha ([4]; 250 g ai/ha, read-out: Velvetleaf damage rating (100=total damage to plant; 0=no damage to plant)) was 0%. For the same compound, the pest or weed control at 15.625 g/ha ([5]; 15.625 g ai/ha, read-out: Foxtail, Giant damage rating (100=total damage to plant; 0=no damage to plant)) was 70%, the pest or weed control at 62.5 g/ha ([5]; 62.5 g ai/ha, 100=total damage to plant, 0=no damage to plant, read-out: plant damage rating, Foxtail, Giant) was 80% and the pest or weed control at 250 g/ha ([5]; 250 g ai/ha, read-out: Foxtail, Giant damage rating (100=total damage to plant; 0=no damage to plant)) was 80%. It also gave a plant injury at 15.625 g/ha (corn (Zea mays) [6]; 15.625 g ai/ha, read-out: Corn damage rating (100=total damage to plant; 0=no damage to plant)) of 0%, a plant injury at 62.5 g/ha (corn (Zea mays) [6]; 62.5 g ai/ha, 100=total damage to plant, 0=no damage to plant, read-out: plant damage rating, Corn) of 50% and a plant injury at 250 g/ha (corn (Zea mays) [6]; 250 g ai/ha, read-out: Corn damage rating (100=total damage to plant; 0=no damage to plant)) of 70%. It also gave a pest or weed control at 15.625 g/ha ([7]; 15.625 g ai/ha, evaluated after 13 days (100=total damage to plant; 0=no damage to plant), read-out: Pigweed, Redroot damage rating) of 0%, a pest or weed control at 62.5 g/ha ([7]; 62.5 g ai/ha, evaluated after 13 days, read-out: Pigweed, Redroot damage rating (100=total damage to plant; 0=no damage to plant)) of 0% and a pest or weed control at 250 g/ha ([7]; 250 g ai/ha, evaluated after 13 days, read-out: damage to plant, Pigweed, Redroot (100=total damage to plant; 0=no damage to plant)) of 20%. For the same compound, the pest or weed control at 15.625 g/ha ([8]; 15.625 g ai/ha, evaluated after 13 days (100=total damage to plant; 0=no damage to plant), read-out: Morningglory, Ivy-leaved damage rating) was 0%, the pest or weed control at 62.5 g/ha ([8]; 62.5 g ai/ha, evaluated after 13 days, read-out: Morningglory, Ivy-leaved damage rating (100=total damage to plant; 0=no damage to plant)) was 10% and the pest or weed control at 250 g/ha ([8]; 250 g ai/ha, evaluated after 13 days, read-out: damage to plant, Morningglory, Ivy-leaved (100=total damage to plant; 0=no damage to plant)) was 0%. It also gave a pest or weed control at 15.625 g/ha ([9]; 15.625 g ai/ha, evaluated after 13 days (100=total damage to plant; 0=no damage to plant), read-out: Barnyardgrass damage rating) of 10%, a pest or weed control at 62.5 g/ha ([9]; 62.5 g ai/ha, evaluated after 13 days, read-out: Barnyardgrass damage rating (100=total damage to plant; 0=no damage to plant)) of 40% and a pest or weed control at 250 g/ha ([9]; 250 g ai/ha, evaluated after 13 days, read-out: damage to plant, Barnyardgrass (100=total damage to plant; 0=no damage to plant)) of 40%. The pest or weed control at 15.625 g/ha ([10]; 15.625 g ai/ha, evaluated after 13 days (100=total damage to plant; 0=no damage to plant), read-out: Velvetleaf damage rating) was 0%, the pest or weed control at 62.5 g/ha ([10]; 62.5 g ai/ha, evaluated after 13 days, read-out: Velvetleaf damage rating (100=total damage to plant; 0=no damage to plant)) was 0% and the pest or weed control at 250 g/ha ([10]; 250 g ai/ha, evaluated after 13 days, read-out: damage to plant, Velvetleaf (100=total damage to plant; 0=no damage to plant)) was 10%. The pest or weed control at 15.625 g/ha ([11]; 15.625 g ai/ha, evaluated after 13 days (100=total damage to plant; 0=no damage to plant), read-out: Foxtail, Giant damage rating) was 50%, the pest or weed control at 62.5 g/ha ([11]; 62.5 g ai/ha, evaluated after 13 days, read-out: Foxtail, Giant damage rating (100=total damage to plant; 0=no damage to plant)) was 60% and the pest or weed control at 250 g/ha ([11]; 250 g ai/ha, evaluated after 13 days, read-out: damage to plant, Foxtail, Giant (100=total damage to plant; 0=no damage to plant)) was 60%. For the same compound, the plant injury at 15.625 g/ha (corn (Zea mays) [12]; 15.625 g ai/ha, evaluated after 13 days (100=total damage to plant; 0=no damage to plant), read-out: Corn damage rating) was 10%, the plant injury at 62.5 g/ha (corn (Zea mays) [12]; 62.5 g ai/ha, evaluated after 13 days, read-out: Corn damage rating (100=total damage to plant; 0=no damage to plant)) was 40% and the plant injury at 250 g/ha (corn (Zea mays) [12]; 250 g ai/ha, evaluated after 13 days, read-out: damage to plant, Corn (100=total damage to plant; 0=no damage to plant)) was 60%.
